Measured values from publication PMC10291556 (Journal of Medicinal Chemistry, 2023).

Experiment: NMR reduction studies with GSH or ascorbic acid
Type: physicochemical
Settings: up to 10 equiv of reducing agent, 48 h, 37 °C, PBS/D2O, 1H NMR
Method: Thus, all compounds were >95% pure by NMR and HPLC analyses. NMR reduction studies were also undertaken where excess equivalents of reducing agents GSH or ascorbic acid were added to the sample before undertaking multiple NMR measurements over a 48 h period at 37 °C. These reducing agents were chosen to mimic the reducing capacity of the […] environment of the blood and tissue. […] However, once inside the cell, reactions with intracellular components might be induced, rendering the prodrug biodegradable. […] Therefore, the complex is unlikely to be reduced in the bloodstream. Monitoring the Pt(IV) peak, falling as the Pt(II) peak rises, would be ideal for further proof of the stability of these complexes, but the Pt(IV) resonance falls outside the detectable range of our instrument.
One equivalent of the complex was dissolved in 500 μL of PBS using D2O for a ^1H NMR experiment performed on a Bruker AVANCE 400 MHz NMR spectrometer, with 50 dummy scans (approx. 5 min) to allow the sample to reach 37 °C before 128 scans were taken. The sample was removed, and the reducing agent was quickly added. Then the NMR measurement was taken again (50 dummy scans followed by 128 scans). The NMR was subsequently set up to measure one 128-scan experiment after another for 4 h, at which point the sample was removed, stored, and scanned again after 24 and 48 h. […]

Cc1c(C)c2c3c4c1=CC=C[N]4[Pt][N]3C=CC=2.NCCNC(=O)Cc1ccccc1Nc1c(Cl)cccc1Cl.NCCNC(=O)Cc1ccccc1Nc1c(Cl)cccc1Cl.N[C@H]1CCCC[C@@H]1N [complex 4, Pt^IV56MeSS(DCF)2]
stability towards reduction by GSH or ascorbic acid: the compound had not been reduced
